One data set deals with MDA-MB-231. Description: Antiproliferative activity against human MDA-MB-231 cells assessed as cell growth inhibition incubated for 72 hrs by MTS assay. Format: functional, cell-based. The note with it: MDA-MB-231, 72 h.
The test system of the next data set is MDA-MB-453. In words: Antiproliferative activity against human MDA-MB-453 cells assessed as cell growth inhibition incubated for 72 hrs by MTS assay. Format: functional, cell-based. Conditions: MDA-MB-453, 72 h. In general terms: Tetrazolium dyes change colour on reduction, which living cells bring about.
The next data set relates to SK-BR-3. In words: Antiproliferative activity against human SK-BR-3 cells assessed as cell growth inhibition incubated for 72 hrs by MTS assay. Conditions: SK-BR-3, 72 h. Format: functional, cell-based.
Another data set has as its system A-375. Description: Antiproliferative activity against human A-375 cells assessed as cell growth inhibition incubated for 72 hrs by MTS assay. Format: functional, cell-based. The note with it: A-375, 72 h.
The test system of data set [1] is M14. In words: Antiproliferative activity against human M14 cells assessed as cell growth inhibition incubated for 72 hrs by MTS assay. Format: functional, cell-based. The note with it: M14, 72 h.
Another data set deals with RPMI-7951. Description: Antiproliferative activity against human RPMI-7951 cells assessed as cell growth inhibition incubated for 72 hrs by MTS assay. Format: functional, cell-based. The note with it: RPMI-7951, 72 h.
The nature of data set [2]: Metabolic stability in human liver microsomes assessed as half life in presence of NADPH regenerating system by UPLC-MS analysis. Format: ADME, Microsome. Conditions: for t1/2: microsomes. For orientation: Microsomes from liver hold many membrane-bound enzymes, among them those of drug oxidation.
Data set [3] can be described thus: Metabolic stability in human liver microsomes assessed as intrinsic clearance in presence of NADPH regenerating system by UPLC-MS analysis. Format: ADME, Microsome. The note with it: read-out: CLH.
Data set [4] is described as follows: Metabolic stability in mouse liver microsomes assessed as intrinsic clearance in presence of NADPH regenerating system by UPLC-MS analysis. Conditions: read-out: CLH. The format is ADME, Microsome.
Data set [5] is described as follows: Induction of cell cycle arrest in human A375/TxR cells assessed as accumulation at G2/M phase at 10 nM measured for 24 hrs by PI staining based flow cytometry analysis. (In general: In flow cytometry, cells or beads pass a laser one at a time.)
In data set [6] the test system is M14. In words: Cytotoxicity against paclitaxel resistant human M14 cells measured after 72 hrs […]. Format: functional, cell-based. The note with it: M14, 72 h.
A short description of data set [7]: Metabolic stability in mouse liver microsomes assessed as half life in presence of NADPH regenerating system by UPLC-MS analysis. The format is ADME, Microsome. Conditions: for t1/2: microsomes.
For data set [8], the system named is M14. In words: Cytotoxicity against human M14 cells measured after 72 hrs […]. The format is functional, cell-based. The note with it: M14, 72 h.
Data set [9] can be described thus: Induction of apoptosis in human A375/TxR cells assessed as apoptotic cells at 10 nM measured for 24 hrs by annexin VFITC /PI staining based analysis (reference value: […]). Format: functional.

Consider `COc1cc(C(=O)c2cccc(-c3ccc(C)c(O)c3)n2)cc(OC)c1OC`, for which the IC50 (commonly the concentration that gives 50% inhibition) in the data set with MDA-MB-231 was found to be 3.3 nM; in the data set on MDA-MB-453 it was 1.1 nM; in the data set with SK-BR-3, 4.1 nM; in the data set with A-375 it was 2 nM; in the data set with M14 [1], 2 nM; with RPMI-7951, 2.8 nM. In [2], the t1/2 is recorded as 10.8 min. Moreover, the values for the CLint scaled in [3] and in data set [4] were 116 mL/min/kg and 57.3 mL/min/kg, respectively. The Activity in data set [5] is on record as 60%.
Consider `COc1cc2c(c(OC)c1OC)-c1ccc(OC)c(=O)cc1[C@@H](NC(C)=O)CC2` [COLCHICINE], for which, in the data set on M14 [6], the IC50 is more than 1000 nM.
With `COc1cc(C(=O)c2cc(OC)c(OC)c(OC)c2)nc(-c2ccc(C)cc2)c1`, the IC50 in the data set with MDA-MB-231 is 11.1 nM; in the data set on MDA-MB-453 it was 5 nM; in the data set on SK-BR-3 it was 4.5 nM; in the data set with A-375, 7.9 nM; in the data set on M14 [1], 7.7 nM; in the data set with RPMI-7951, 6.8 nM. In addition, the t1/2 in data set [2] was 27.6 min; in data set [7], more than 240 min. Also, the CLint scaled was 45 mL/min/kg in data set [3] and 13 mL/min/kg in [4].
Consider `COc1cc(C(=O)c2c[nH]c(-c3ccc(C)c(O)c3)n2)cc(OC)c1OC`, for which the half-inhibitory concentration (IC50) with MDA-MB-231 turned out to be 24.3 nM; in the data set on MDA-MB-453 it was 23.2 nM; with SK-BR-3, 57.6 nM; in the data set on A-375 it was 41.2 nM; in the data set on M14 [1], 32.4 nM; with RPMI-7951, 78.4 nM. For the same molecule, the t1/2 in data set [2] is given as 142.2 min; in [7] it was 84.6 min. Also, the CLint scaled in data set [3] is 8.8 mL/min/kg; in data set [4] it was 40.6 mL/min/kg.
In the case of `CC(=O)O[C@H]1C(=O)[C@@]2(C)[C@H]([C@H](OC(=O)c3ccccc3)[C@]3(O)C[C@H](OC(=O)[C@H](O)[C@@H](NC(=O)c4ccccc4)c4ccccc4)C(C)=C1C3(C)C)[C@]1(OC(C)=O)CO[C@@H]1C[C@@H]2O` [PACLITAXEL], the IC50 with M14 [8] came out at 0.5 nM; with M14 [6] it was 186 nM. For the same molecule, the Activity in [9] is given as 11.8%.
As for `COc1cc(C(=O)c2cccc(-c3ccc(C(F)F)cc3)n2)cc(OC)c1OC`, the IC50 with MDA-MB-231 amounted to 4.7 nM; in the data set on MDA-MB-453 it was 4 nM; in the data set on SK-BR-3, 3.8 nM; with A-375, 3 nM; in the data set on M14 [1] it was 4.7 nM; with RPMI-7951, 2.8 nM. The values for the t1/2 in data set [2] and in [7] were 5.4 min and 12.6 min, respectively. Besides, the CLint scaled in data set [3] worked out at 240 mL/min/kg; in data set [4], 271 mL/min/kg.
As to `COc1cc(C(=O)c2cc(OC)c(OC)c(OC)c2)nc(-c2ccc(C)c(O)c2)c1`, the IC50 with MDA-MB-231 turned out to be 17.6 nM; with MDA-MB-453 it was 14.7 nM; with SK-BR-3 it was 16.9 nM; in the data set on A-375 it was 22.2 nM; in the data set with M14 [1] it was 17.5 nM; in the data set on RPMI-7951, 17.2 nM. For the same molecule, the figures for the t1/2 in data set [2] and in data set [7] were 42.6 min and 45 min, respectively. The CLint scaled in [3] is 29.2 mL/min/kg; in data set [4], 76.7 mL/min/kg.
Turning to `COc1cc(C(=O)c2cccc(-c3ccc(C)cc3)n2)cc(OC)c1OC`, the 50% inhibitory concentration (IC50) was 5.3 nM in the data set with MDA-MB-231; 3.9 nM with MDA-MB-453; 4.2 nM in the data set with SK-BR-3; 2.4 nM with A-375; 3.1 nM with M14 [1]; 3.5 nM in the data set with RPMI-7951. Moreover, the figures for the t1/2 in data set [2] and in data set [7] were 4.2 min and 3 min, respectively. Also, the CLint scaled was 317 mL/min/kg in data set [3] and 1050 mL/min/kg in [4].
Take `CCc1c(OC)cc(C(=O)c2cccc(-c3ccc(C)c(O)c3)n2)cc1OC`: the IC50 in the data set on MDA-MB-231 amounted to 37.4 nM; with MDA-MB-453, 8.7 nM; in the data set with SK-BR-3, 10.1 nM; with A-375, 15.1 nM; with M14 [1] it was 24.8 nM; with RPMI-7951, 13.9 nM. Besides, the t1/2 in data set [2] was determined as 54.6 min; in data set [7] it was 211.8 min. For the same molecule, the CLint scaled amounted to 22.9 mL/min/kg in data set [3] and 16.2 mL/min/kg in [4].
As to `COc1cc(C(=O)c2cccc(-c3ccc4c(c3)CCN4)n2)cc(OC)c1OC`, the IC50 with MDA-MB-231 was determined as 5.3 nM; in the data set with MDA-MB-453, 5.9 nM; in the data set with SK-BR-3, 5.5 nM; in the data set on A-375 it was 5 nM; in the data set on M14 [1] it was 5.6 nM; in the data set with RPMI-7951, 5.9 nM. The half-life (commonly the time needed for the level to fall by half in the phase considered) in data set [2] (liver microsomes) is 15 min; in [7] (liver microsomes), 4.2 min. For the same molecule, the CLint scaled in data set [3] is 83.6 mL/min/kg; in [4] it was 818 mL/min/kg.

The record behind these values is ChEMBL document CHEMBL5029155, “Design, Synthesis, and Biological Evaluation of Stable Colchicine-Binding Site Tubulin Inhibitors 6-Aryl-2-benzoyl-pyridines as Potential Anticancer Agents” (J Med Chem, 2021).
